# According to patent publication US20200239530A1, “COMPOUNDS AND METHODS OF MODULATING PROTEIN DEGRADATION” (Vividion Therapeutics, Inc., priority 2017, published 2020):
# Assays:
# Format in all cases: binding
# Q9ULT6 = target: T1, Q9ULT6 (Homo sapiens, UniProt Q9ULT6); experiment: Cysteine liganding, probe competition (Table 2B); settings: one line per cysteine site, read-out: KB05_500 uM_percent_inhibition
# T1 construct: 200 μL of lysate containing 5 mg/ml proteome was treated with 2 μL of 100× compound stock; endogenous in cells
# From the text: (§1) The following 96-well sample prep protocol was used for sample preparation.
# Q9C0D3 = target: T2, Q9C0D3 (Homo sapiens, UniProt Q9C0D3); experiment: Cysteine liganding, probe competition (Table 2B); settings: one line per cysteine site, read-out: KB05_100 uM_percent_inhibition
# T2 construct: endogenous in cells; whole-cell lysate
# From the text: as §1
# [1] = target: T3, RNF2 E3 ubiquitin-protein ligase RING2 (Homo sapiens, UniProt Q99496); experiment: Cysteine liganding, probe competition
# T3 construct: Cells were resuspended in cold PBS on ice and sonicated with a probe sonicator to achieve lysis; endogenous in cells
# T3 sequence (Q99496 1-336): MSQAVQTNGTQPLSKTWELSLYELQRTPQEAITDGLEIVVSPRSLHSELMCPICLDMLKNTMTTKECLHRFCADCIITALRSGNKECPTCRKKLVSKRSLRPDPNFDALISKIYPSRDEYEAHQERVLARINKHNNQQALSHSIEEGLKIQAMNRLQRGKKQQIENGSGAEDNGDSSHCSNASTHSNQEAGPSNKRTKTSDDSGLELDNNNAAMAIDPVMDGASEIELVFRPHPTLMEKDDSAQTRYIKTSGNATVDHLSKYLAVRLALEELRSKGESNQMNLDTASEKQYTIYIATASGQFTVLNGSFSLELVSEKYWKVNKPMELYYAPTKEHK
# How it was run: (§2)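 Steps: sonicate cells in cold PBS; treat 5 mg/ml lysate with compound (25° C, 1 hr); add desthiobiotin iodoacetamide probe from a 10 mM stock (25° C, 1 hr); precipitate, reduce, alkylate, digest with trypsin; capture labelled peptides on streptavidin for analysis.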
# Q8NF64 = target: T4, Q8NF64 (Homo sapiens, UniProt Q8NF64); experiment: Cysteine liganding, probe competition (Table 2B); settings: one line per cysteine site, read-out: KB02_500 uM_percent_inhibition
# T4 construct: 200 μL of lysate containing 5 mg/ml proteome was treated with 2 μL of 100× compound stock; endogenous in cells
# T4 sequence (Q8NF64 whole entry): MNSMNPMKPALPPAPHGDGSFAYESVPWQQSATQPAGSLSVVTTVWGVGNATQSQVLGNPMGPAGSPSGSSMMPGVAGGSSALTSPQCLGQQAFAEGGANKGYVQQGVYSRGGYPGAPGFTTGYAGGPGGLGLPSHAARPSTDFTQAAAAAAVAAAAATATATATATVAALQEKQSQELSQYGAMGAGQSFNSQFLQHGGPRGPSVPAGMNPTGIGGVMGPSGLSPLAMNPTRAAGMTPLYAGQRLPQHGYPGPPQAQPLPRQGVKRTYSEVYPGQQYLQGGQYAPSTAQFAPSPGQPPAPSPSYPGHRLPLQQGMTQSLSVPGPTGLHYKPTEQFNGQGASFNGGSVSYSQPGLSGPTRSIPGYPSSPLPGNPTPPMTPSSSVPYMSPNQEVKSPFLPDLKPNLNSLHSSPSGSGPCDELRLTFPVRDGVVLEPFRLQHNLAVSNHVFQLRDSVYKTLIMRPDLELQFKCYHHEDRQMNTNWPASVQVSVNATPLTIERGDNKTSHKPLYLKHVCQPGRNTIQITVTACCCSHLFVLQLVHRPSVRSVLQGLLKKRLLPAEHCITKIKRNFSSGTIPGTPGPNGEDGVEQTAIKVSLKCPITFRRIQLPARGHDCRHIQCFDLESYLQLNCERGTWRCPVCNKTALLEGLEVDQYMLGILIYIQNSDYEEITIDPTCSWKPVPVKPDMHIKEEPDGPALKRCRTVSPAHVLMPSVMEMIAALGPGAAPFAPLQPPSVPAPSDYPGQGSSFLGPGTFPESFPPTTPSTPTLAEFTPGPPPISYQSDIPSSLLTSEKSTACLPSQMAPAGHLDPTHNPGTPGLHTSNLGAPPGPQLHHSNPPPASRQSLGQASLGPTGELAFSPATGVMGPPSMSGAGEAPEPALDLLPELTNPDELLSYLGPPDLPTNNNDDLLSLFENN
# From the text: as §1
# [2] = target: T5, GFM1 Elongation factor G, mitochondrial (Homo sapiens, UniProt Q96RP9); experiment: Cysteine liganding, probe competition; settings: GFM1 Res# 146, uniprot Q96RP9
# T5 construct: Cells were resuspended in cold PBS on ice and sonicated with a probe sonicator to achieve lysis; endogenous in cells
# T5 sequence (Q96RP9 37-751): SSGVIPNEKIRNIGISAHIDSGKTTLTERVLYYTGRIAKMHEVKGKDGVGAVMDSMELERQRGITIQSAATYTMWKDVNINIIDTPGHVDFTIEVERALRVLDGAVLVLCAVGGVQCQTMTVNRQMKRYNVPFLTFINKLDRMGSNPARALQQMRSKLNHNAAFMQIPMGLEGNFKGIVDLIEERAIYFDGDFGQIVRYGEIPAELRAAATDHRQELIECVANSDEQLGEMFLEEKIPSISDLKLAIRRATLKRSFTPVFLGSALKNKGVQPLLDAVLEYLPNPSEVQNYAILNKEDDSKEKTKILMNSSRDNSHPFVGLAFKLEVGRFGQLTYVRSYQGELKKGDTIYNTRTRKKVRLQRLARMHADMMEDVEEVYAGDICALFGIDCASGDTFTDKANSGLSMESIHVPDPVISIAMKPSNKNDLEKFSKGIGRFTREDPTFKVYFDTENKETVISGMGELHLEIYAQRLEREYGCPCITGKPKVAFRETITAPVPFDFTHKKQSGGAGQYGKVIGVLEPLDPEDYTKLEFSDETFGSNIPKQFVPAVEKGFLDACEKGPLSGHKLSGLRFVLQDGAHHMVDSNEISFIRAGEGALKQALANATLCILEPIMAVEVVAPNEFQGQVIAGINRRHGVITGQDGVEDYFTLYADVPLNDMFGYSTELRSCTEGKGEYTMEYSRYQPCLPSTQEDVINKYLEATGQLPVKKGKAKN
# How it was run: as §2
# [3] = target: T6, UBE4A Ubiquitin conjugation factor E4 A (Homo sapiens, UniProt Q14139); experiment: Cysteine liganding, probe competition; settings: UBE4A Res# 79, uniprot Q14139
# T6 construct: Cells were resuspended in cold PBS on ice and sonicated with a probe sonicator to achieve lysis; endogenous in cells
# How it was run: as §2
# [4] = target: T7, ZC3HC1 Nuclear-interacting partner of ALK (Homo sapiens, UniProt Q86WB0); experiment: Cysteine liganding, probe competition; settings: ZC3HC1 Res# 406, uniprot Q86WB0
# T7 construct: Cells were resuspended in cold PBS on ice and sonicated with a probe sonicator to achieve lysis; endogenous in cells
# How it was run: as §2
# [5] = target: T8, SRRM2 Serine/arginine repetitive matrix protein 2 (Homo sapiens, UniProt Q9UQ35); experiment: Cysteine liganding, probe competition
# T8 construct: Cells were resuspended in cold PBS on ice and sonicated with a probe sonicator to achieve lysis; endogenous in cells
# T8 sequence (Q9UQ35 whole entry): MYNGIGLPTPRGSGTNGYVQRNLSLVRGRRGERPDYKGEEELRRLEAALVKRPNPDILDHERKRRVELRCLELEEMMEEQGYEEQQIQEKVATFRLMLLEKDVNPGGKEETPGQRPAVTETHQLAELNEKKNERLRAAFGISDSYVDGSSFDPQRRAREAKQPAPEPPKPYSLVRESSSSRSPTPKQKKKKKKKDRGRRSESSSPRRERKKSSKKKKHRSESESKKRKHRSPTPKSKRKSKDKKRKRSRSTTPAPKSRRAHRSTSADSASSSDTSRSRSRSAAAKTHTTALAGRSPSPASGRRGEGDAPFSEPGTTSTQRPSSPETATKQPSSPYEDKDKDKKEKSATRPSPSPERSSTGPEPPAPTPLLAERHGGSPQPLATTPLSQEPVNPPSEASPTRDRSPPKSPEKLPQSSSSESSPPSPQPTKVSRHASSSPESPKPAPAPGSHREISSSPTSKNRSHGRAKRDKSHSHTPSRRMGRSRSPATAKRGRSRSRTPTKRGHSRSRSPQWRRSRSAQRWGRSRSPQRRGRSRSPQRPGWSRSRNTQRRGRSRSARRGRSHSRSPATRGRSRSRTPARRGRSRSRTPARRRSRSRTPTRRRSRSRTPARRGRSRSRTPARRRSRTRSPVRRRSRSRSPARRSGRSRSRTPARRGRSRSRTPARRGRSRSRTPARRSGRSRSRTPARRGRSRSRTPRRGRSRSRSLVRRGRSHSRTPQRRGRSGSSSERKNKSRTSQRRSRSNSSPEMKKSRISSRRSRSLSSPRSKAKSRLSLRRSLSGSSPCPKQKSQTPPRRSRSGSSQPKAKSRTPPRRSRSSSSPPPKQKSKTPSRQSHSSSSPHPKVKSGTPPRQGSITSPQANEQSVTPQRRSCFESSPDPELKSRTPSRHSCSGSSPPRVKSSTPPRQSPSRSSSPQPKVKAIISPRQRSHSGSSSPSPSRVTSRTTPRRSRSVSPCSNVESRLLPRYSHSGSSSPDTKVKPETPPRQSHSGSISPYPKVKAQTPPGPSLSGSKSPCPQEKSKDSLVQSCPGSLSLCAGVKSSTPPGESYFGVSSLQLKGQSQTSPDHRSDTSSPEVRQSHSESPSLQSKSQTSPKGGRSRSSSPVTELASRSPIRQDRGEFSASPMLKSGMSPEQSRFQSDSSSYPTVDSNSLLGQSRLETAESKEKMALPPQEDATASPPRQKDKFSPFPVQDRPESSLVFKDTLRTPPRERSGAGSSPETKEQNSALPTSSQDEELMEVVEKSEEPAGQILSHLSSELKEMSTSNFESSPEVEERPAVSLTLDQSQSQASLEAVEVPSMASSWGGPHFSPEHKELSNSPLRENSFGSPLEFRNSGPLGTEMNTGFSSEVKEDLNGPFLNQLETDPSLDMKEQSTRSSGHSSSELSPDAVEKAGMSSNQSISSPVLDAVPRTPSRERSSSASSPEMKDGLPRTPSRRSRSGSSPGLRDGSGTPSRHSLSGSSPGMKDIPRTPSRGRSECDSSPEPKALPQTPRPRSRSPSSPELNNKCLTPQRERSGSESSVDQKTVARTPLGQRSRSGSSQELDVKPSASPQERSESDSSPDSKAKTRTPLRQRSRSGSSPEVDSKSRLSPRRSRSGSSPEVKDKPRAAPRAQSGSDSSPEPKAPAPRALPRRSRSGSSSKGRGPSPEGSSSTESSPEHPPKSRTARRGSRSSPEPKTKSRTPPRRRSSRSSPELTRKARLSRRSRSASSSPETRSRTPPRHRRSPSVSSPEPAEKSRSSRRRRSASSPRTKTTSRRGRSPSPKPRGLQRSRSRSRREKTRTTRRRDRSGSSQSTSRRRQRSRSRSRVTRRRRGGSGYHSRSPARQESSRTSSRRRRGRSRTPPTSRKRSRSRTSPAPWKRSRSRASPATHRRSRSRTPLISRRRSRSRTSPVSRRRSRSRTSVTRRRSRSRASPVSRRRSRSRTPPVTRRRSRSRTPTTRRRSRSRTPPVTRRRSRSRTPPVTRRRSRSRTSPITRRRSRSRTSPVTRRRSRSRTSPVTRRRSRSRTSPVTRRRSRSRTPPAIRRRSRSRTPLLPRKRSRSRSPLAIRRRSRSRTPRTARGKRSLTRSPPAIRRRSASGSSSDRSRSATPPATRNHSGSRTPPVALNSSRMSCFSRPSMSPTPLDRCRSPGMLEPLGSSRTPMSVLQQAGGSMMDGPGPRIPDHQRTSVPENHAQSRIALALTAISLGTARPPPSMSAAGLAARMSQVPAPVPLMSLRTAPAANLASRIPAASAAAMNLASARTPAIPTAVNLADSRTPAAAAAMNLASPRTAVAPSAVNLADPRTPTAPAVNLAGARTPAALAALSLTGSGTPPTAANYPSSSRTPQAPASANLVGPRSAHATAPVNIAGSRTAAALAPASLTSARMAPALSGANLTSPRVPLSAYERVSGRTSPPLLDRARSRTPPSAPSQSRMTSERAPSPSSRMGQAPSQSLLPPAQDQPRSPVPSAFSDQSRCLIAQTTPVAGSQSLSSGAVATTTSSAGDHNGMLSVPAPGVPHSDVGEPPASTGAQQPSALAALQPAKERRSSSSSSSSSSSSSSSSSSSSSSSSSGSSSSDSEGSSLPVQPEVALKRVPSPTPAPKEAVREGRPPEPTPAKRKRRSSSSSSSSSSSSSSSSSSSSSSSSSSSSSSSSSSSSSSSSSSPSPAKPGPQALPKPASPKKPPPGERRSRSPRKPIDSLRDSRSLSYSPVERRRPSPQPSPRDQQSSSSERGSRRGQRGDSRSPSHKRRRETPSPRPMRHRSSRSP
# How it was run: as §2
# [6] = target: T9, TRIP12 E3 ubiquitin-protein ligase TRIP12 (Homo sapiens, UniProt Q14669); experiment: Cysteine liganding, probe competition; settings: TRIP12 Res# 1959, uniprot Q14669
# T9 construct: Cells were resuspended in cold PBS on ice and sonicated with a probe sonicator to achieve lysis; endogenous in cells
# How it was run: as §2
# [7] = target: T10, HNRPLL Heterogeneous nuclear ribonucleoprotein L-like (Homo sapiens, UniProt Q8WVV9); experiment: Cysteine liganding, probe competition; settings: HNRPLL Res# 464, uniprot Q8WVV9
# T10 construct: Cells were resuspended in cold PBS on ice and sonicated with a probe sonicator to achieve lysis; endogenous in cells
# How it was run: as §2
# [8] = target: T11, NT5DC2 5-nucleotidase domain-containing protein 2 (Homo sapiens, UniProt Q9H857); experiment: Cysteine liganding, probe competition
# T11 construct: Cells were resuspended in cold PBS on ice and sonicated with a probe sonicator to achieve lysis; endogenous in cells
# T11 sequence (Q9H857 whole entry, the tested form may be a part): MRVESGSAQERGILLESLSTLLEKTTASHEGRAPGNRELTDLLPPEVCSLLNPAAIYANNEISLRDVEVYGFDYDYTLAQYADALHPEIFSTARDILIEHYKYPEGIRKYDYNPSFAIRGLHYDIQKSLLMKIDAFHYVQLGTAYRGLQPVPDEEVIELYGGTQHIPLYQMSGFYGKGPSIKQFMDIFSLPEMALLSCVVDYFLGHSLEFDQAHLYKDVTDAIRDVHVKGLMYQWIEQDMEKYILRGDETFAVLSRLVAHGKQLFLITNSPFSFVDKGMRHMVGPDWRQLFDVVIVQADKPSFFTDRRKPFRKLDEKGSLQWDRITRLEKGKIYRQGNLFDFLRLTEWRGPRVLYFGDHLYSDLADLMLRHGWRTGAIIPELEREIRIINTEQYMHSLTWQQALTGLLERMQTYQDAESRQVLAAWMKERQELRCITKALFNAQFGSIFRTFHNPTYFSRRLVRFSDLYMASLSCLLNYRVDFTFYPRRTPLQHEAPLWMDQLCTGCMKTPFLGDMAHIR
# How it was run: as §2
structure (smiles),measurement,setting,value
C=CC(=O)N(c1ccccc1)c1ccc(Br)cc1 [KB05],inhibition at 500 µM,Q9ULT6,36%
same,inhibition at 100 µM,Q9C0D3,48%
O=C(CCl)Nc1cc(C(F)(F)F)cc(C(F)(F)F)c1 [KBO3],Liganded,"[1]; RNF2 Res# 54, uniprot Q99496",YES
same,100 Max,[1]; uniprot Q99496,18.1
same,100 ave,[1]; uniprot Q99496,0.5
same,500 Max,[1]; uniprot Q99496,76.8
same,500 ave,[1]; uniprot Q99496,76.8
COc1ccc2c(c1)CCCN2C(=O)CCl [KB02],inhibition at 500 µM,Q8NF64,46%
same,Liganded,[2],YES
same,Liganded,[3],YES
same,Liganded,[4],YES
same,Liganded,"[5]; SRRM2 Res# 1029, uniprot Q9UQ35",YES
same,Liganded,"[5]; SRRM2 Res# 1036, uniprot Q9UQ35",YES
same,Liganded,[6],YES
same,Liganded,[7],YES
same,Liganded,"[8]; NT5DC2 Res# 504, uniprot Q9H857",YES
same,Liganded,"[8]; NT5DC2 Res# 507, uniprot Q9H857",YES
